22 molecules from patent US20230117034A1, “PYRAZOLOTRIAZINES” (Bayer Aktiengesellschaft, priority 2019, published 2023) can be followed below.

For one assay, the target named is T1, CDK9/CycT1 (Homo sapiens, UniProt P50750).
T1 construct: Recombinant full-length His-tagged human CDK9 and CycT1; purchased Life Technologies PV4131; host or cells: insect cells
As to the kind of experiment: CDK9/CycT1 high ATP kinase assay (TR-FRET, 2 mM ATP). The note with it: 2 mM ATP (high ATP); median; read-out: CDK9/CyclinT1, 2 mM ATP (high ATP), IC50 (median). Type of assay: biochemical. The procedure, abridged: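 Full-length His-tagged human CDK9/CycT1 (insect cell, ~0.5 μg/mL) preincubated 15 min at 22 °C with compound in Tris pH 8.0, MgCl2, DTT buffer before reaction with biotinylated peptide substrate at high ATP (2 mM).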
(In general: Time-resolved FRET reads energy transfer from a long-lived donor to a nearby acceptor.)

Assay [1] concerns BRCA1 mRNA expression in MDA-MB-231 cells. As to the kind of experiment: qRT-PCR assay: BRCA1 mRNA expression in MDA-MB-231. Type of assay: cell-based, human. Particulars: Homo sapiens, MDA-MB-231, Inhibition of BRCA1 mRNA expression in MDA-MB-231 cells; median; read-out: RTqPCR-MDA-MB-231, IC50, BRCA1 (median). Summed up: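 GAPDH-normalised RT-qPCR measures the transcript after 24 h continuous compound treatment of cells seeded at 200,000/well one day earlier.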
A general note: In qPCR the cycle at which signal appears reflects the starting amount.

For assay [2], the system named is MDA-MB-231, human breast cancer cells. In words: Proliferation assay MDA-MB-231 (crystal violet, 4 days). The format is cell-based. The note with it: MDA-MB-231 cells, median, read-out: Prolif-MDA MB-231, IC50-[mol/l] (median). Summed up: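 Following a 24 h attachment in 10% fetal calf serum medium, cells receive test substance over 0.01-10 µmol/L for 4 days. Dye retained by fixed cells is eluted and read at 595 nm; cell number change is referenced to day-0 and untreated wells.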

Molecules are shown by their SMILES. Read-outs that look alike come from different tables or passages of the source.

T1 sequence (P50750 whole entry): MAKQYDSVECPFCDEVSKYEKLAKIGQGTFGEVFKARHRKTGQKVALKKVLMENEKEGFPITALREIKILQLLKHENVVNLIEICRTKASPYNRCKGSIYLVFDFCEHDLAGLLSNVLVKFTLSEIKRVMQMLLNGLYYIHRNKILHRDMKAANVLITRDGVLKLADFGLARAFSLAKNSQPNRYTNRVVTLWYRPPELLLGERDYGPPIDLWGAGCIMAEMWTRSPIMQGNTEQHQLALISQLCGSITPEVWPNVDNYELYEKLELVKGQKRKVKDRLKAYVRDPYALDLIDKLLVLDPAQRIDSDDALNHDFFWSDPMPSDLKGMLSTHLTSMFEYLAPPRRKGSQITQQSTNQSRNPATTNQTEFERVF
T1 sequence (O60563 whole entry partner): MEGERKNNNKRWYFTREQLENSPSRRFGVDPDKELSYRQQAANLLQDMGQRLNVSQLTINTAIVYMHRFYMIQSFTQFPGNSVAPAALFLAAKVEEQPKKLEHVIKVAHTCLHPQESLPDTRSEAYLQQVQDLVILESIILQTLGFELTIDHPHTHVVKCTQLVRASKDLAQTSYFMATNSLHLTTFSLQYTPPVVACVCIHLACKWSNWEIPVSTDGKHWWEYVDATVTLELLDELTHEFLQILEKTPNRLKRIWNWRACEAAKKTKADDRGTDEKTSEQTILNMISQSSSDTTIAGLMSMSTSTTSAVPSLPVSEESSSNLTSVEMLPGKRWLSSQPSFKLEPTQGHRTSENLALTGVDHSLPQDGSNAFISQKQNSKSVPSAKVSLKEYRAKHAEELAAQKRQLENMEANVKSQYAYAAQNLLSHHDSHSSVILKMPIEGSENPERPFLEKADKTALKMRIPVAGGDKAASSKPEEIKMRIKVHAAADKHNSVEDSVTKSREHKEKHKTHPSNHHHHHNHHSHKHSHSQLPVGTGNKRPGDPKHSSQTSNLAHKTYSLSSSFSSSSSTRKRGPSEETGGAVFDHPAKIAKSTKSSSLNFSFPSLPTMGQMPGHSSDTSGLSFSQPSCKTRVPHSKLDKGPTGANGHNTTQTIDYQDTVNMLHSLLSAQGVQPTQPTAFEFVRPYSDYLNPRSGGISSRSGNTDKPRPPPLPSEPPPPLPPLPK

With `CN(CC(C)(C)O)c1nc(NCc2nc3cc(Cl)c(Cl)cc3[nH]2)n2ncc(C3CC3)c2n1` [Example 306, 1-[(8-cyclopropyl-4-{[(5,6-dichloro-1H-benzimidazol-2-yl)methyl]amino}pyrazolo[1,5-a][1,3,5]triazin-2-yl)(methyl)amino]-2-methylpropan-2-ol], the IC50 is more than 20000 nM on CDK9/CycT1; 6.94 nM in assay [1]; 7.83 nM in assay [2] (Homo sapiens, MDA-MB-231, 96 h).
Take `CC1CN(C)CCN1c1nc(NCc2nc3ccccc3[nH]2)n2ncc(Br)c2n1` (single isomer, unassigned; enantiomer 1) [Example 260, N-(1H-benzimidazol-2-ylmethyl)-8-bromo-2-[(2R or S)-2,4-dimethylpiperazin-1-yl]pyrazolo[1,5-a][1,3,5]triazin-4-amine (Enantiomer 1)]: the IC50 on CDK9/CycT1 is more than 20000 nM; in assay [1], 3.42 nM; in assay [2], 13.4 nM.
For `C[C@@H]1CN(c2nc(NCc3nc4ccccc4[nH]3)n3ncc(C4CC4)c3n2)C[C@H](C)N1` [Example 248, N-[(1H-benzimidazol-2-yl)methyl]-8-cyclopropyl-2-[(3R,5S)-3,5-dimethylpiperazin-1-yl]pyrazolo[1,5-a][1,3,5]triazin-4-amine], the IC50 was more than 20000 nM on CDK9/CycT1; 1.6 nM in assay [1]; 12 nM in assay [2] (Homo sapiens, MDA-MB-231, 96 h).
The matching figures for `N[C@H]1[C@@H]2C[C@H]1CN(c1nc(NCc3nc4ccccc4[nH]3)n3ncc(Br)c3n1)C2` [Example 288, 2-[(1R,5S,6r)-6-amino-3-azabicyclo[3.1.1]heptan-3-yl]-N-[(1H-benzimidazol-2-yl)methyl]-8-bromopyrazolo[1,5-a][1,3,5]triazin-4-amine]: more than 20000 nM, 2.69 nM and 5.68 nM.
The like results for `c1ccc2[nH]c(CNc3nc(N4CCOCC4)nc4c(C5CCC5)cnn34)nc2c1` [Example 263, N-[(1H-benzimidazol-2-yl)methyl]-8-cyclobutyl-2-(morpholin-4-yl)pyrazolo[1,5-a][1,3,5]triazin-4-amine] were, in that order, more than 20000 nM, 28.8 nM and 73.2 nM.
Regarding `Brc1cnn2c(NCc3nc4ccccc4[nH]3)nc(N3C[C@H]4CNC[C@H]4C3)nc12` [Example 283, N-[(1H-benzimidazol-2-yl)methyl]-8-bromo-2-[(3aR,6aS)-hexahydropyrrolo[3,4-c]pyrrol-2(1H)-yl]pyrazolo[1,5-a][1,3,5]triazin-4-amine], the IC50 at CDK9/CycT1 was more than 20000 nM; in assay [1] it was 9.13 nM; in assay [2] (Homo sapiens, MDA-MB-231, 96 h), 35 nM.
The like results for `CN[C@H]1CCN(c2nc(NCc3nc4ccccc4[nH]3)n3ncc(Br)c3n2)C1` [Example 252, N-[(1H-benzimidazol-2-yl)methyl]-8-bromo-2-[(3S)-3-(methylamino)pyrrolidin-1-yl]pyrazolo[1,5-a][1,3,5]triazin-4-amine] were, in that order, more than 20000 nM, 10.2 nM and 30.6 nM.
The like results for `Brc1cnn2c(NCc3nc4ccccc4[nH]3)nc(NCC3CC3)nc12` [Example 284, N^4-[(1H-benzimidazol-2-yl)methyl]-8-bromo-N^2-(cyclopropylmethyl)pyrazolo[1,5-a][1,3,5]triazine-2,4-diamine] were, in that order, more than 20000 nM, 24.2 nM and 73.5 nM.
`Fc1cccc2[nH]c(CNc3nc(N4CCOCC4)nc4c(C(F)(F)F)cnn34)nc12` [Example 274, N-[(4-fluoro-1H-benzimidazol-2-yl)methyl]-2-(morpholin-4-yl)-8-(trifluoromethyl)pyrazolo[1,5-a][1,3,5]triazin-4-amine]: the IC50 is more than 20000 nM at CDK9/CycT1; 1.92 nM in assay [1]; 6.74 nM in assay [2] (Homo sapiens, MDA-MB-231, 96 h).
Regarding `CN1CCN(c2nc(NCc3nc4cc(F)c(F)cc4[nH]3)n3ncc(C4CC4)c3n2)CC1` [Example 311, 8-cyclopropyl-N-[(5,6-difluoro-1H-benzimidazol-2-yl)methyl]-2-(4-methylpiperazin-1-yl)pyrazolo[1,5-a][1,3,5]triazin-4-amine], the IC50 was more than 20000 nM on CDK9/CycT1; 3.42 nM in assay [1]; 16.7 nM in assay [2] (Homo sapiens, MDA-MB-231, 96 h).
The matching figures for `Brc1cnn2c(NCc3nc4ccccc4[nH]3)nc(N3CCC4(CCN4)CC3)nc12` [Example 291, N-[(1H-benzimidazol-2-yl)methyl]-8-bromo-2-(1,7-diazaspiro[3.5]nonan-7-yl)pyrazolo[1,5-a][1,3,5]triazin-4-amine]: more than 20000 nM, 15.3 nM and 59.4 nM.
The matching figures for `CN1CCN(c2nc(NCc3nc4ccccc4[nH]3)n3ncc(C4CC4)c3n2)CC1` [Example 246, N-[(1H-benzimidazol-2-yl)methyl]-8-cyclopropyl-2-(4-methylpiperazin-1-yl)pyrazolo[1,5-a][1,3,5]triazin-4-amine]: more than 20000 nM, 10.3 nM and 121 nM.
The like results for `Brc1cnn2c(NCc3nc4ccccc4[nH]3)nc(N3CC4CCNC4C3)nc12` (stereo not drawn) [Example 271, 2-(2,3,3a,4,6,6a-hexahydro-1H-pyrrolo[2,3-c]pyrrol-5-yl)-N-(1H-benzimidazol-2-ylmethyl)-8-bromo-pyrazolo[1,5-a][1,3,5]triazin-4-amine] were, in that order, more than 20000 nM, 13.9 nM and 40 nM.
Take `Fc1ccc2[nH]c(CNc3nc(N4CCOCC4)nc4c(CC(F)(F)F)cnn34)nc2c1` [Example 308, N-[(5-fluoro-1H-benzimidazol-2-yl)methyl]-2-(morpholin-4-yl)-8-(2,2,2-trifluoroethyl)pyrazolo[1,5-a][1,3,5]triazin-4-amine]: the IC50 on CDK9/CycT1 was more than 20000 nM; in assay [1] it was 5.46 nM; in assay [2] (Homo sapiens, MDA-MB-231, 96 h), 27.9 nM.
The like results for `Brc1cnn2c(NCc3nc4c([nH]3)CCCC4)nc(N3CCOCC3)nc12` [Example 21, 8-bromo-2-(morpholin-4-yl)-N-[(4,5,6,7-tetrahydro-1H-benzimidazol-2-yl)methyl]pyrazolo[1,5-a][1,3,5]triazin-4-amine] were, in that order, more than 20000 nM, 31.8 nM and 285 nM.
The matching figures for `Fc1ccc2[nH]c(CNc3nc(N4CC5CCC(C4)N5)nc4c(C(F)(F)F)cnn34)nc2c1F` [Example 310, 2-(3,8-diazabicyclo[3.2.1]octan-3-yl)-N-[(4,5-difluoro-1H-benzimidazol-2-yl)methyl]-8-(trifluoromethyl)pyrazolo[1,5-a][1,3,5]triazin-4-amine]: 8490 nM, 35.1 nM and 3.48 nM.
The like results for `Fc1cccc2[nH]c(CNc3nc(N4C[C@H]5CC[C@@H](C4)N5)nc4c(C5CC5)cnn34)nc12` [Example 296, 8-cyclopropyl-2-[(1R,5S)-3,8-diazabicyclo[3.2.1]octan-3-yl]-N-[(4-fluoro-1H-benzimidazol-2-yl)methyl]pyrazolo[1,5-a][1,3,5]triazin-4-amine] were, in that order, more than 20000 nM, 1.27 nM and 4.4 nM.
For the molecule `Fc1ccc2[nH]c(CNc3nc(N4CCOCC4)nc4c(C(F)(F)F)cnn34)nc2c1` [Example 273, N-[(5-fluoro-1H-benzimidazol-2-yl)methyl]-2-(morpholin-4-yl)-8-(trifluoromethyl)pyrazolo[1,5-a][1,3,5]triazin-4-amine], the IC50 was more than 20000 nM on CDK9/CycT1; 1.95 nM in assay [1]; 6 nM in assay [2] (Homo sapiens, MDA-MB-231, 96 h).
For the molecule `CN(CC(C)(C)O)c1nc(NCc2nc3c(F)c(F)ccc3[nH]2)n2ncc(C3CC3)c2n1` [Example 292, 1-[(8-cyclopropyl-4-{[(4,5-difluoro-1H-benzimidazol-2-yl)methyl]amino}pyrazolo[1,5-a][1,3,5]triazin-2-yl)(methyl)amino]-2-methylpropan-2-ol], the IC50 at CDK9/CycT1 was more than 6250 nM; in assay [1], 2.8 nM; in assay [2] (Homo sapiens, MDA-MB-231, 96 h), 7.05 nM.
The matching figures for `Fc1cc2nc(CNc3nc(N4CCOCC4)nc4c(C5CC5)cnn34)[nH]c2cc1F` [Example 318, 8-cyclopropyl-N-[(5,6-difluoro-1H-benzimidazol-2-yl)methyl]-2-(morpholin-4-yl)pyrazolo[1,5-a][1,3,5]triazin-4-amine]: more than 20000 nM, 0.97 nM and 4.22 nM.
The matching figures for `CN[C@@H]1CCN(c2nc(NCc3nc4ccccc4[nH]3)n3ncc(Br)c3n2)C1` [Example 253, N-[(1H-benzimidazol-2-yl)methyl]-8-bromo-2-[(3R)-3-(methylamino)pyrrolidin-1-yl]pyrazolo[1,5-a][1,3,5]triazin-4-amine]: more than 20000 nM, 20.8 nM and 32.8 nM.
The matching figures for `c1ccc2[nH]c(CNc3nc(N4CCNCC4)nc4c(C5CC5)cnn34)nc2c1` [Example 247, N-[(1H-benzimidazol-2-yl)methyl]-8-cyclopropyl-2-(piperazin-1-yl)pyrazolo[1,5-a][1,3,5]triazin-4-amine]: more than 20000 nM, 5.55 nM and 50.7 nM.
